Measured values: PMC3676791, “Synthesis, Cytotoxicity, DNA Binding and Apoptosis of Rhein-Phosphonate Derivatives as Antitumor Agents” (International Journal of Molecular Sciences, 2013)
Read-outs that look alike come from different tables or passages of the source.

How the values were obtained:
[1] = tested on: Hct-116 cells; details: cited from earlier work
[2] = tested on: CNE cells; test: MTT cytotoxicity assay, CNE; assay type: cell-based, human; details: 72 h, mean ± SD, three independent experiments
Description: (§1) The following in vitro human cancer cell lines were used: HepG 2 ([…]), Hela (Henrietta Lacks strain of cancer cells), Hct-116 (human colorectal cells), CNE (human nasopharyngeal carcinoma cells), Spca-2 (human lung adenocarcinoma cell line), HUVEC (human umbilical vein endothelial cells). The cell lines (HepG 2, Hela, Hct-116, CNE, Spca-2, HUVEC) were purchased from the Cell Resource Center of Shanghai Institutes for Biological Sciences, The Academy of Sciences of China.
(§2) HepG-2, Hela, Hct-116, CNE, HUVEC cells were cultured in Dulbecco Modified Eagle Medium (DMEM) (Thermo), containing 4.0 mM L-Glutamine and 4,500 mg/L Glucose, supplemented with 10% (v/v) fetal bovine serum (FBS; HyClone, Logan, UT, USA). Spca-2 cells were cultured in RPMI-1640 medium, containing 2.05 mM L-Glutamine without Calcium nitrate, supplemented with 10% (v/v) fetal bovine serum (FBS; HyClone). The cell culture media was supplemented with penicillin/streptomycin at 100 Units/mL as adherent monolayers. Cell cultures were kept in a humidified incubator with 5% CO2 at 37 °C. Stock solutions were prepared in dimethyl sulfoxide (DMSO) and further dilutions were made with fresh culture medium. The concentration of DMSO in the final culture medium was 1%, which had no effect on the cell viability.
(§3) Chemosensitivity was assessed using 3-(4,5-dimethylthiazol-2-yl)-2,5-diphenyl tetrazolium bromide (MTT) assay. Briefly, exponentially growing HepG-2 (2,000–3,000 cells/well), Hela (2,000–3,000 cells/well), Hct-116 (3,000–4,000 cells/well), CNE (2,000–3,000 cells/well), HUVEC (2,000–3,000 cells/well) and Spca-2 […], and then […] of MTT (10 mg/mL) was added. After incubation for 4 h at 37 °C, the purple formazan crystals (i.e., a reduced form of MTT) generated from viable cells were dissolved by adding 100 μL DMSO in each well. The plates were swirled gently for 10 min to dissolve the precipitate, and quantified by measuring the optical density (OD) of the plates at a wavelength of 490 nm on plate reader (TECAN infinite M1000). Each concentration was repeated in three wells and the same experimental conditions were provided for all compounds and MTT analysis was repeated three times for each cell line.

[3] = tested on: Hela cells; test: MTT cytotoxicity assay, Hela; assay type: cell-based, human; details: 72 h, mean ± SD, three independent experiments
Description: as §1, §2, §3

[4] = tested on: HepG-2 cells; test: MTT cytotoxicity assay, HepG-2; assay type: cell-based, human; details: 72 h, mean ± SD, three independent experiments
Description: as §1, §2, §3

[5] = tested on: HUVEC cells; test: MTT cytotoxicity assay, HUVEC normal cells; assay type: cell-based, human; details: normal cell line, 72 h, mean ± SD, three independent experiments
Description: as §1, §2, §3

[6] = tested on: HepG-2 cells; test: Cell cycle analysis by PI flow cytometry, HepG-2; assay type: cell-based, human; details: 48 h, untreated 4.27%
Description: The cell cycle is the series of events that take place in a cell leading to its division and duplication (replication). The cell cycle consists of four distinct phases: G1 phase, S phase (synthesis), G2 phase (collectively known as interphase) and M phase (mitosis). The G1 stage is the stage when preparation of energy and material for DNA replication occurs. The S stage is the stage when DNA replication occurs. The G2 stage is the stage when preparation for the M stage occurs. The M stage is “mitosis,” and is when nuclear and cytoplasmic division occurs.
The cell lines were treated with indicated concentrations of compounds. After being incubated for 48 h, cells were washed twice with ice-cold PBS, fixed and permeabilized with ice-cold 70% ethanol at −20 °C overnight. The cells were treated with 100 μg/mL RNase A at 37 °C for 30 min after washed with ice-cold PBS, and finally stained with 1 mg/mL propidium iodide (PI) in the dark at 4 °C for 30 min. Analysis was performed with the system software (CellQuest; BD Biosciences).

[7] = tested on: Spca-2 cells; test: MTT cytotoxicity assay, Spca-2; assay type: cell-based, human; details: 72 h; mean ± SD, three independent experiments
Description: as §1, §2
as §3, with “Each concentration was repeated in three wells and the same experimental conditions were provided for all compounds and MTT analysis was repeated three times for each cell line.” left out

[8] = tested on: HepG-2 cells; test: Annexin V-FITC/PI apoptosis flow cytometry, HepG-2; assay type: cell-based, human; details: 24 h
Description: Many anthraquinones such as rhein and emodim induce apoptosis. Flow cytometry was used to investigate analog-induced apoptosis and cell death. The compounds (5a–c) with cytotoxic effects were investigated for the effects on the apoptosis of HepG-2 cells. To clarify the mechanism of rhein derivative-induced cell death, we determined both early and late apoptosis using annexin V-FITC and PI (Propidium iodide) labeling of live cells. Annexin V binds to phosphatidylserine, which is exposed on the cell membrane and is one of the earliest indicators of cellular apoptosis. PI is used as a DNA stain for both flow cytometry to evaluate cell viability or DNA content in cell cycle analysis and microscopy to visualize the nucleus and other DNA containing organelles. It can be used to differentiate necrotic, apoptotic and normal cells. In the present study, the apoptotic cell rates were determined for the HepG-2 cells after stimulation for 24 h by the compounds at different concentrations. […] Compounds 5a and 5b induced apoptosis in 84.4% and 70.4% of the HepG-2 cells. Compounds 5a and 5b are of special interest as these compounds seem to drive HepG-2 cells directly into early apoptosis. Meanwhile, we also investigated for the effects on the apoptosis of HUVEC cells.
Apoptosis was discriminated with the annexin V-FITC/propidium iodide test. […]

[9] = tested on: ct-DNA; test: GelRed-ct-DNA competitive fluorescence quenching (Stern-Volmer); assay type: binding, calf; design: unit not given here; details: [GelRed]/[DNA] = 1:10, excitation 350 nm, emission 590 nm
Description: The binding ability of these complexes to ct-DNA was primarily investigated by competitive binding in which they served as an intercalative binding probe in competition with GelRed. GelRed, which is environmentally safe and ultra-sensitive for DNA staining, is a newly developed DNA intercalator to replace the classic DNA intercalator EB. Furthermore, both GelRed and EB bound with ct-DNA emit characteristic fluorescence at 590 nm upon 350 nm UV light excitation.
In competitive binding experiments, GelRed and ct-DNA solutions were pre-incubated for 30 min to ensure sufficient interactions. The concentration ratio of GelRed to DNA was set at [GelRed]/[DNA] = 1:10 to ensure sufficient binding sites of DNA for GelRed. The emission spectra of the GelRed–ctDNA system in the absence and presence of 5b were shown in Figure 2 (for that of 5a and 5c, see Figures S3 and S4). […] The presence of 5b considerably quenched the fluorescence emission of GelRed with the saturation state achieved at the [5b]/[GelRed] ratio of 8:1.
where [DNA] is the DNA concentration in nucleotides, ɛa is the molar extinction coefficient of the compound bound with DNA, ɛf is the extinction coefficient of the free compound, and ɛb is the extinction coefficient of the compound fully bound to DNA. ɛa, ɛf and ɛb are all calculated from the Lambert-Beer’s law (ɛ = A/[compound]). To determine ɛb, it is assumed that the compounds are fully bound with DNA at the point where no further hypochromicity is observed under the addition of ct-DNA, and the apparent absorbance Ab is regarded as the absorbance of only the bound compounds. Ct is the constant concentration of the compounds, and s is the number of binding sites in base pairs. A solution containing 2 × 10^−4 M DNA and 2 × 10^−5 M GelRed ([DNA]/[GelRed] = 10:1) was prepared for GelRed-DNA competitive binding studies. Fluorescence emission spectra were recorded under slit width as 10 nm/10 nm for Ex/Em, respectively. The quenching constant for comparing the efficiency of fluorescence quenching, i.e., Kq, of each compound was obtained by the linear fit of plotting I0/I versus [Q], according to the classic Stern-Volmer equation: I0/I = 1 + Kq × [Q] […] In the fluorescence polarization experiment, each sample was pre-incubated for 40 min before the fluorescence polarization was recorded under the condition of 595 nm emitting wavelength with 350 nm exciting wavelength, and slit width was set as 5 nm/5 nm for Ex/Em, respectively. CD absorption spectra of DNA were measured in TBS at a 100 nm/min scan rate in the wavelength range from 200 to 400 nm, with 1 × 10^−4 M DNA in the absence and presence of each compound of 2 × 10^−5 M, respectively. […]

[10] = tested on: Hct-116 cells; test: MTT cytotoxicity assay, Hct-116; assay type: cell-based, human; details: 72 h; mean ± SD, three independent experiments
Description: as §1, §2
as §3, with “Each concentration was repeated in three wells and the same experimental conditions were provided for all compounds and MTT analysis was repeated three times for each cell line.” left out

[11] = tested on: ct-DNA; test: Circular dichroism spectra of ct-DNA; assay type: binding, calf; details: [5b]/[DNA] ratio 1:10
Description: The circular dichroism (CD) is a useful technique to assess whether the nucleic acids undergo conformational changes as a result of complex formation or changes in environmental conditions. […] This was consistent with the characteristic B conformation of DNA [56].
The decrease in the intensities of both positive and negative bands can usually be observed in the intercalative binding of small molecules to DNA [57].
where [DNA] is the DNA concentration in nucleotides, ɛa is the molar extinction coefficient of the compound bound with DNA, ɛf is the extinction coefficient of the free compound, and ɛb is the extinction coefficient of the compound fully bound to DNA. ɛa, ɛf and ɛb are all calculated from the Lambert-Beer’s law (ɛ = A/[compound]). To determine ɛb, it is assumed that the compounds are fully bound with DNA at the point where no further hypochromicity is observed under the addition of ct-DNA, and the apparent absorbance Ab is regarded as the absorbance of only the bound compounds. […] Fluorescence emission spectra were recorded under slit width as 10 nm/10 nm for Ex/Em, respectively. The quenching constant for comparing the efficiency of fluorescence quenching, i.e., Kq, of each compound was obtained by the linear fit of plotting I0/I versus [Q], according to the classic Stern-Volmer equation: I0/I = 1 + Kq × [Q] […]

Molecule: O=c1[nH]cc(F)c(=O)[nH]1 [5-Fu, fluorouracil, reference compound]
- IC50 [1]: 4.3 ± 0.52 µM
- IC50 ([2]; Homo sapiens, CNE): > 50 µM
- IC50 ([3]; Homo sapiens, HeLa): > 50 µM
- IC50 ([4]; Homo sapiens, HepG2): 20.3 ± 2.43 µM

Molecule: CCOP(=O)(OCC)C(C)(NC(=O)c1cc(O)c2c(c1)C(=O)c1cccc(O)c1C2=O)c1ccc(C)cc1 (centres unmarked) [5a]
- IC50 [5]: > 100 µM
- G2-phase population ([6]; HepG-2, 20 μM): 7.23%
- G2-phase population ([6]; HepG-2, 30 μM): 11.08%
- G2-phase population ([6]; HepG-2, 40 μM): 18.05%
- IC50 [2]: 33.8 ± 2.17 µM
- IC50 [3]: > 50 µM
- IC50 [7]: 16.9 ± 1.32 µM
- IC50 [4]: 15.1 ± 1.54 µM
- apoptosis induced, % of HepG-2 cells [8]: 84.4%
- quenching constant Kq (Stern-Volmer) [9]: 2.02 × 10^3
- IC50 [10]: 30.6 ± 8.75 µM

Molecule: CCOP(=O)(OCC)C(C)(CCc1ccccc1)NC(=O)c1cc(O)c2c(c1)C(=O)c1cccc(O)c1C2=O (centres unmarked) [5b, O,O′-Diethyl{[2-(4,5-dihydroxy-9,10-dioxo-9,10-dihydroanthracene)acetamido] (Phenylethyl)ethyl} phosphonate]
- IC50 [5]: > 100 µM
- G2-phase population ([6]; HepG-2, 10 μM): 8.52%
- G2-phase population ([6]; HepG-2, 20 μM): 14.56%
- G2-phase population ([6]; HepG-2, 30 μM): 18.23%
- IC50 [2]: 27.3 ± 3.78 µM
- IC50 [3]: 45.4 µM
- IC50 [7]: 9.01 ± 0.87 µM
- IC50 [4]: 8.82 ± 0.95 µM
- apoptosis induced, % of HepG-2 cells [8]: 70.4%
- quenching constant Kq (Stern-Volmer) [9]: 3.2 × 10^3
- IC50 [10]: 12.7 ± 1.5 µM
- percentage decrease in maximal DNA negative CD absorption ([11]; negative band at 245 nm): 32.2%
- percentage decrease in maximal DNA positive CD absorption ([11]; positive band at 280 nm): 9.78%

Molecule: O=C(O)c1cc(O)c2c(c1)C(=O)c1cccc(O)c1C2=O [Rhein]
- IC50 ([5]; Homo sapiens, HUVEC): 79.7 ± 5.4 µM
- IC50 ([3]; Homo sapiens, HeLa): > 50 µM
- quenching constant Kq (Stern-Volmer) [9]: 3.94 × 10^3

Molecule: O,O′-Diethyl {[2-(4,5-dihydroxy-9,10-dioxo-9,10-dihydroanthracene) acetamido] (phenyl) methyl} phosphonate [5c]
- IC50 [5]: > 100 µM
- IC50 [2]: 38.3 ± 8.23 µM
- IC50 [3]: > 50 µM
- IC50 [7]: 25.1 ± 2.72 µM
- IC50 [4]: 18.2 ± 1.87 µM
- quenching constant Kq (Stern-Volmer) [9]: 0.753 × 10^3
- IC50 [10]: 23.4 ± 3.22 µM
